Tests used:
[1] = tested on: Pioneer 84G62 (herbicide susceptible control); assay: Mode of inheritance greenhouse spray test, susceptible control; format: in vivo, sorghum; conditions: 0.045 lb ai fluazifop-P acre^-1 at 14 days after planting; n=3
Description: (§1) The mode of inheritance of herbicide tolerance was determined by planting seeds of Bol-71, F1 generation of cross ATx623 x Bol-71, and Pioneer 84G62 (herbicide susceptible control) in flats containing MetroMix 360 potting soil in a greenhouse using a randomized complete block design (n=3). The plants were sprayed with 0.045 lb ai fluazifop-P acre^−1 at 14 days after planting. Pioneer 84G62 died between 12-16 days after spraying.

[2] = tested on: Tx2783, an herbicide susceptible elite sorghum genotype; assay: Greenhouse herbicide spray selection, susceptible check; format: in vivo
From the text: (§2) Seeds of 83 wild sorghum populations from Bolivia were planted in a greenhouse for comparison with Tx2783, an herbicide susceptible elite sorghum genotype. Wild sorghum genotypes were planted in flats containing MetroMix 360 potting soil (Sun Gro) and greenhouse grown. Tx2783 was planted with the wild accessions in each flat for comparison. In one selection using clethodim, plants were sprayed with 0.09 lb ai clethodim acre^−1 at 18 days after planting. […] In one selection using fluazifop-P, flats with Tx2783 and wild accessions were sprayed with a rate of 0.12 lb ai fluazifop-P acre^−1 at 18 days after planting and with 0.36 lb ai fluazifop-P acre^−1 at 32 days after planting. […] In a third experiment, plants were sprayed with a rate of 0.05 lb ai quizalofop acre^−1 at 18 days after planting and with 0.11 lb ai quizalofop acre^−1 at 32 days after planting.

[3] = tested on: wild sorghum populations from Bolivia; assay: Greenhouse herbicide spray selection, wild accessions; format: in vivo; conditions: 83 wild populations
From the text: as §2

Bol-71 = assay: Mode of inheritance greenhouse spray test, Bol-71; format: in vivo, wild sorghum; conditions: 0.045 lb ai fluazifop-P acre^-1 at 14 days after planting; n=3
Description: as §1

[4] = tested on: Bol-71 wild sorghum genotype; assay: Greenhouse herbicide spray selection, Bol-71; format: in vivo
From the text: as §2

[5] = tested on: F1 generation of cross ATx623 x Bol-71; assay: Mode of inheritance greenhouse spray test, F1 hybrid; format: in vivo, sorghum; conditions: 0.045 lb ai fluazifop-P acre^-1 at 14 days after planting; n=3
Description: as §1

[6] = 0.12 lb ai fluazifop-P acre^-1 at 18 days and 0.36 lb ai acre^-1 at 32 days after planting
[7] = 0.05 lb ai quizalofop acre^-1 at 18 days and 0.11 lb ai acre^-1 at 32 days after planting

SMILES | time at which plants died [1] | plant response to spraying [2, 6] | plant response to spraying [3, 6] | herbicide damage (Bol-71) | tolerance to herbicide [4, 6] | herbicide damage [5] | plant response to spraying [2, 7] | plant response to spraying [3, 7] | tolerance to herbicide [4, 7]
C[C@@H](Oc1ccc(Oc2ccc(C(F)(F)F)cn2)cc1)C(=O)O [fluazifop-P] | 12-16 days after spraying | died | many of the wild sorghums died | no herbicide damage | high levels of tolerance | no herbicide damage |  |  | 
CC(Oc1ccc(Oc2cnc3cc(Cl)ccc3n2)cc1)C(=O)O (stereo not drawn) [quizalofop] |  |  |  |  |  |  | died | many of the wild sorghums died | high levels of tolerance

Reference: patent publication US20100115663A1, “Acetyl-CoA Carboxylase Herbicide Resistant Sorghum” (priority 2007, published 2010)
